{
  "source": "patent US20250228865A1",
  "about": "“COMPOUNDS FOR ENHANCING READ THROUGH OF GENES CONTAINING PREMATURE TERMINATION CODONS AND METHODS FOR MAKING AND USING THE SAME” (Sanofi US Services Inc., priority 2022, published 2025)",
  "key": {"[1]": {"system": "CFTR G542X", "assay": "Functional CFTR channel activity, TECC-24 electrophysiology, 16HBE cells (CFTR G542X readthrough)", "assay_type": "cell-based, human", "description": "(§1) 16HBE human bronchial epithelial cells were seeded onto Transwell 24-well filter inserts coated with human collagen type IV. Cells were seeded 7 days prior to functional testing at a density of 1.7×10^5 cells onto the “apical” chamber filter of the Transwell insert. Cells were grown as submerged cultures (200 μL apical/700 μL basolateral) in Minimal Essential Medium (MEM) containing 10% qualified Fetal Bovine Serum and 1% Penicillin/Streptomycin and incubated at 37° C. and 5% CO2. Growth media on cells was replenished with fresh media every 1-3 days prior to test agent treatment day. After 7 days in culture, the CFTR-mediated chloride (Cl^−) equivalent current (Ieq) of the 16HBE cells was recorded, which may typically form electrically tight epithelia with a transepithelial resistance (Rt) of 2000-6000 Ω·cm2 as described below. Forty-eight hours prior to electrophysiological measurements, fresh growth media containing the test agents was applied to both chambers separating filter bound epithelial monolayer.\n(§2) On the day of electrophysiology studies, electrodes of a “Multi-(24-channel) transepithelial current clamp amplifier” (MTECC-24 (TECC-24 for short), EP Devices, Belgium) were soaked in an assay buffer (see below for composition) for at least 2 hours using 24-well Transwell plates without inserts. Cell culture media was replaced in the Transwell assay plates with assay buffer (see below) and the plates were mounted onto a custom-built automated robotic assay platform (Yamaha RCX240S controller) with heated plate holders set at 37° C. for 60 min. After equilibration, transepithelial potential difference (PD) and resistance (Rt) was monitoredat ˜5 min intervals using the TECC-24 transepithelial current clamp. Electrode potential differences were monitored for each pair of Ag/AgCl voltage electrodes by taking voltage measurements from a control (“blank”) plate with matching buffer solutions and 16HBE cells that were not treated with any test agent. PD values for each electrode pair were subtracted from the blank plate from that of the test plates at each time point. Ieq was calculated from the corrected PD values and Rt using Ohm's law. Ieq values were slope corrected to account for measurement drift over time using the equation: Slope corrected value=calculated Ieq−((time x slope)+y-intercept) with the slope and y-intercept calculated from the data points captured during the initial baseline period and following addition of the CFTR inhibitor.\n(§3) The equivalent current (Ieq) traces associated with CFTR channel activation were plotted as baseline subtracted mean±standard deviation from 3-4 separate wells on the 24-well Transwell (n=3-4). There are 4 recording periods, with the first set of data points recorded baseline Ieq currents prior to sequential activation of available CFTR channels with forskolin (10 μM) and then in combination with potentiator VX-770/ivacaftor (1 μM). Recorded the last set of data points in the presence of CFTR inhibitor CFTRinh-172 (20 μM) to confirm that currents are mediated via activation of CFTR channels. The test agents and control/reference compounds were pre-diluted to 10-fold concentrations in assay buffer and added manually using a multi-channel pipette to both the basolateral and apical side of the membrane (test plates only). Employed CFTR-mediated changes in Ieq, (i.e. forskolin/VX-770 activated currents) to measure functional CFTR surface expression or treatment-related functional rescue of mutant CFTR.\n(§4) The magnitude of test agent mediated enhancement of functional CFTR currents was calculated by comparing forskolin/VX-770 stimulated Ieq relative to baseline/CFTRinh-172 Ieq following 48 hour pretreatment with test agent(s) and normalizing to the forskolin/VX-770 stimulated Ieq determined following 48 hour pretreatment with a maximally effective concentration a reference control aminoglycoside agent (typically 110 μM G418). […]"}, "[2]": {"system": "CFTR R1162X", "assay": "Functional CFTR channel activity, TECC-24 electrophysiology, 16HBE cells (CFTR R1162X readthrough)", "assay_type": "cell-based, human", "description": "as §1, §2, §3, §4"}, "[3]": {"conditions": "RTM conc. —, eRF3 modulator (CC-90009) 1 uM, ELX-02 100 uM"}, "[4]": {"conditions": "RTM 0.5 uM, eRF3 modulator (CC-90009) 1 uM, Paramomycin 2000 uM"}, "[5]": {"conditions": "RTM 1 uM, eRF3 modulator (CC-90009) 1 uM, ELX-02 100 uM"}, "[6]": {"conditions": "RTM 1 uM, eRF3 modulator (CC-90009) 1 uM, G418 10 uM"}, "[7]": {"conditions": "RTM 5 uM, eRF3 modulator (CC-90009) 10 uM, G418 10 uM"}, "[8]": {"conditions": "RTM 1 uM, no eRF3 modulator, ELX-02 100 uM"}},
  "data": [
    {"molecule": "OCc1ccn(-c2ncc(OCc3c(Cl)cccc3Cl)cn2)n1", "note": "[drawing 826]", "values": [
      {"measurement": "Currents (% of 110 μM G418 (Max effect))", "setting": "[1]; [3]", "result": "83 % of 110 μM G418 (Max effect)"}
    ]},
    {"molecule": "OCc1cn(-c2ncc(OCc3c(Cl)cccc3Cl)cn2)cn1", "note": "[drawing 814]", "values": [
      {"measurement": "Currents (% of 110 μM G418 (Max effect))", "setting": "[2]; [4]", "result": "183 % of 110 μM G418 (Max effect)"}
    ]},
    {"molecule": "Cc1cccc(C(F)(F)F)c1COc1ccc(N2CC(CO)OC2=O)cc1", "note": "(centres unmarked) [drawing 839]", "values": [
      {"measurement": "Currents (% of 110 μM G418 (Max effect))", "setting": "[1]; RTM 1 uM, no eRF3 modulator, G418 10 uM", "result": "76 % of 110 μM G418 (Max effect)"}
    ]},
    {"molecule": "Cc1cccc(C(F)(F)F)c1COc1ccc(-c2nc(CO)n[nH]2)cc1", "note": "[drawing 805]", "values": [
      {"measurement": "Currents (% of 110 μM G418 (Max effect))", "setting": "[2]; [3]", "result": "63 % of 110 μM G418 (Max effect)"}
    ]},
    {"molecule": "OCc1cn(-c2ncc(OCc3c(Cl)cccc3Cl)cn2)cn1", "note": "[drawing 837]", "values": [
      {"measurement": "Currents (% of 110 μM G418 (Max effect))", "setting": "[1]; RTM 0.5 uM, no eRF3 modulator, Paramomycin 2000 uM", "result": "5 % of 110 μM G418 (Max effect)"}
    ]},
    {"molecule": "OCc1ccn(-c2ncc(OCc3c(Cl)cccc3Cl)cn2)n1", "note": "[drawing 803]", "values": [
      {"measurement": "Currents (% of 110 μM G418 (Max effect))", "setting": "[2]; [5]", "result": "300 % of 110 μM G418 (Max effect)"}
    ]},
    {"molecule": "OCc1cn(-c2ncc(OCc3c(Cl)cccc3Cl)cn2)cn1", "note": "[drawing 838]", "values": [
      {"measurement": "Currents (% of 110 μM G418 (Max effect))", "setting": "[1]; [4]", "result": "140 % of 110 μM G418 (Max effect)"}
    ]},
    {"molecule": "Cc1cccc(C(F)(F)F)c1COc1ccc(N2CC(CO)OC2=O)cc1", "note": "(centres unmarked) [drawing 840]", "values": [
      {"measurement": "Currents (% of 110 μM G418 (Max effect))", "setting": "[1]; [6]", "result": "290 % of 110 μM G418 (Max effect)"}
    ]},
    {"molecule": "Cc1cccc(C(F)(F)F)c1COc1ccc(-c2nc(CO)n[nH]2)cc1", "note": "[drawing 830]", "values": [
      {"measurement": "Currents (% of 110 μM G418 (Max effect))", "setting": "[1]; [5]", "result": "263 % of 110 μM G418 (Max effect)"}
    ]},
    {"molecule": "O=C1O[C@H](CO)CN1c1ccc(OCc2c(Cl)cccc2Cl)cc1", "note": "[drawing 818]", "values": [
      {"measurement": "Currents (% of 110 μM G418 (Max effect))", "setting": "[2]; [7]", "result": "314 % of 110 μM G418 (Max effect)"}
    ]},
    {"molecule": "O=C1O[C@H](CO)CN1c1ccc(OCc2c(Cl)cccc2Cl)cc1", "note": "[drawing 842]", "values": [
      {"measurement": "Currents (% of 110 μM G418 (Max effect))", "setting": "[1]; [7]", "result": "323 % of 110 μM G418 (Max effect)"}
    ]},
    {"molecule": "Cc1cccc(C(F)(F)F)c1COc1ccc(N2CC(CO)OC2=O)cc1", "note": "(centres unmarked) [drawing 816]", "values": [
      {"measurement": "Currents (% of 110 μM G418 (Max effect))", "setting": "[2]; [6]", "result": "423 % of 110 μM G418 (Max effect)"}
    ]},
    {"molecule": "O=C1N[C@H](CO)CN1c1ccc(OCc2c(Cl)cccc2Cl)cn1", "note": "[drawing 808]", "values": [
      {"measurement": "Currents (% of 110 μM G418 (Max effect))", "setting": "[2]; [3]", "result": "63 % of 110 μM G418 (Max effect)"}
    ]},
    {"molecule": "OCc1ccn(-c2ncc(OCc3c(Cl)cccc3Cl)cn2)n1", "note": "[drawing 802]", "values": [
      {"measurement": "Currents (% of 110 μM G418 (Max effect))", "setting": "[2]; [3]", "result": "63 % of 110 μM G418 (Max effect)"}
    ]},
    {"molecule": "OCc1ncn(-c2ncc(OCc3c(Cl)cccc3C(F)(F)F)cn2)n1", "note": "[drawing 810]", "values": [
      {"measurement": "Currents (% of 110 μM G418 (Max effect))", "setting": "[2]; RTM 3 uM, no eRF3 modulator, ELX-02 100 uM", "result": "102 % of 110 μM G418 (Max effect)"}
    ]},
    {"molecule": "O=C1N[C@H](CO)CN1c1ccc(OCc2c(Cl)cccc2Cl)cn1", "note": "[drawing 832]", "values": [
      {"measurement": "Currents (% of 110 μM G418 (Max effect))", "setting": "[1]; [3]", "result": "83 % of 110 μM G418 (Max effect)"}
    ]},
    {"molecule": "OCc1cn(-c2ncc(OCc3c(Cl)cccc3Cl)cn2)cn1", "note": "[drawing 798]", "values": [
      {"measurement": "Currents (% of 110 μM G418 (Max effect))", "setting": "[2]; RTM 0.5 uM, eRF3 modulator (CC-90009) 1 uM, G418 10 uM", "result": "472 % of 110 μM G418 (Max effect)"}
    ]},
    {"molecule": "O=C1O[C@H](CO)CN1c1ccc(OCc2c(Cl)cccc2Cl)cc1", "note": "[drawing 841]", "values": [
      {"measurement": "Currents (% of 110 μM G418 (Max effect))", "setting": "[1]; RTM 5 uM, no eRF3 modulator, G418 10 uM", "result": "54 % of 110 μM G418 (Max effect)"}
    ]},
    {"molecule": "O=C1N[C@H](CO)CN1c1ccc(OCc2c(Cl)cccc2Cl)cn1", "note": "[drawing 807]", "values": [
      {"measurement": "Currents (% of 110 μM G418 (Max effect))", "setting": "[2]; [8]", "result": "70 % of 110 μM G418 (Max effect)"}
    ]},
    {"molecule": "OCc1cn(-c2ncc(OCc3c(Cl)cccc3Cl)cn2)cn1", "note": "[drawing 821]", "values": [
      {"measurement": "Currents (% of 110 μM G418 (Max effect))", "setting": "[1]; RTM 0.5 uM, no eRF3 modulator, G418 10 uM", "result": "78 % of 110 μM G418 (Max effect)"}
    ]},
    {"molecule": "OCc1ccn(-c2ncc(OCc3c(Cl)cccc3Cl)cn2)n1", "note": "[drawing 801]", "values": [
      {"measurement": "Currents (% of 110 μM G418 (Max effect))", "setting": "[2]; [8]", "result": "102 % of 110 μM G418 (Max effect)"}
    ]},
    {"molecule": "Cc1cccc(C(F)(F)F)c1COc1ccc(-c2nc(CO)n[nH]2)cc1", "note": "[drawing 804]", "values": [
      {"measurement": "Currents (% of 110 μM G418 (Max effect))", "setting": "[2]; [8]", "result": "106 % of 110 μM G418 (Max effect)"}
    ]},
    {"molecule": "OCc1cn(-c2ncc(OCc3c(Cl)cccc3Cl)cn2)cn1", "note": "[drawing 824]", "values": [
      {"measurement": "Currents (% of 110 μM G418 (Max effect))", "setting": "[1]; RTM 0.5 uM, eRF3 modulator (CC-90009) 1 uM, ELX-02 100 uM", "result": "421 % of 110 μM G418 (Max effect)"}
    ]}
  ]
}
